We go through 2 compounds from patent US20250129096A1, “ANNULATED 2-AMINO-3-CYANO THIOPHENES AND DERIVATIVES FOR THE TREATMENT OF CANCER” (Boehringer Ingelheim Int'l GmbH Corp., priority 2021, published 2025).

As usually defined, the IC50 is the midpoint of a concentration-inhibition curve. Low readings indicate greater potency in that assay, high ones weaker potency in that assay. In general, solubility refers to how much of the substance goes into solution per volume.

One series concerns the target T1, KRAS (G12D)::SOS1 (Homo sapiens, UniProt P01116, G12D).
T1 construct: KRAS (G12D) 1-169, N-terminal 6His-tag, C-terminal avi-tag; 6His-tag (N); purchased Xtal BioStructures, Inc. (KRAS G12D); Viva Biotech Ltd (SOS1)
Kind of series: KRAS::SOS1 AlphaScreen binding assay, KRAS G12D. On the procedure:
(§1) Low IC50 values in this assay setting are indicative of strong inhibition of protein-protein interaction between SOS1 and KRAS:
(§2) These assays measure the inhibitory effect of compounds on KRAS mutant protein-protein interactions using the Alpha Screen technology by Perkin Elmer.
(§3) For the chosen highest assay concentration of 100 μM, 150 nL of compound solution are transferred from a 10 mM DMSO compound stock solution. A series of eleven fivefold dilutions per compound are transferred to the assay plate, compound dilutions are tested in duplicates. DMSO are added as backfill to a total volume of 150 nL.
(§4) The assays run on a fully automated robotic system in a darkened room below 100 Lux. To 150 nl of compound dilution 10 μl of a mix including KRAS mutant protein, SOS1 (final assay concentrations see above) and GDP nucleotide (Sigma G7127; final assay concentration 10 μM) in assay buffer (1×PBS, 0.1% BSA, 0.05% Tween 20) are added into columns 1-24. After 30 minutes incubation time 5 μl of Alpha Screen bead mix in assay buffer are added into columns 1-23.
(§5) Plates are kept at room temperature in a darkened incubator. After an additional 60 minutes incubation time the signal is measured in a PerkinElmer Envision HTS Multilabel Reader using the AlphaScreen specs from PerkinElmer.
(§6) IC50 values are calculated and analyzed with Boehringer Ingelheim's MEGALAB IC50 application using a 4 parametric logistic model.
Background: In Alpha technology, singlet oxygen from a donor bead excites a nearby acceptor bead.

For a further series, the target named is KRAS G12D Ba/F3 cells (Homo sapiens, UniProt P01116, G12D, cells depend on it). The series is described as follows: Ba/F3 proliferation assay, KRAS G12D. The class given is cell-based. The following applies: 72 h, AlamarBlue; read-out: KRAS G12D Ba/F3 IC50. The procedure:
(§7) To generate KRASG12-dependent Ba/F3 models, Ba/F3 cells are transduced with retroviruses containing vectors that harbor KRASG12 isoforms. Platinum-E cells (Cell Biolabs) are used for retrovirus packaging. Retrovirus is added to Ba/F3 cells. To ensure infection, 4 μg/mL polybrene is added and cells are spinfected. […] Cells with an infection efficiency of 10% to 20% are further cultivated and puromycin selection with 1 μg/mL is initiated. As a control, parental Ba/F3 cells are used to show selection status. Selection is considered successful when parental Ba/F3 cells cultures died. To evaluate the transforming potential of KRASG12 mutations, the growth medium is no longer supplemented with IL-3. Ba/F3 cells harboring the empty vector are used as a control. Approximately ten days before conducting the experiments, puromycin is left out. […] All treatments are performed in technical duplicates. […] AlamarBlue™(ThermoFisher), a viability stain, is added and fluorescence measured in the PerkinElmer Envision HTS Multilabel Reader. The raw data are imported into and analyzed with the Boehringer Ingelheim proprietary software MegaLab (curve fitting based on the program PRISM, GraphPad Inc.).
(Alamar Blue is a resazurin reagent that responds to reducing activity.)

The next series has as its target KRAS G12C Ba/F3 cells (Homo sapiens, UniProt P01116, G12C, cells depend on it). The series is described as follows: Ba/F3 proliferation assay, KRAS G12C. The following applies: 72 h, AlamarBlue; read-out: KRAS G12C Ba/F3 IC50. The class given is cell-based. The procedure: as §7
A further series is described as follows: Caco-2 assay. The class given is in vitro ADME. The following applies: human; for Papp A→B at 90 min, 10 μM: Caco-2, apical to basolateral, pH 7.4, read-out: Caco PappAB; for efflux ratio at 90 min, 10 μM: Caco-2, pH 7.4, efflux ratio PappBA/PappAB, read-out: Caco ER. The source says:
The assay provides information on the potential of a compound to pass the cell membrane, on the extent of oral absorption as well as on whether the compound is actively transported by uptake and/or efflux transporters. Permeability measurements across polarized, confluent Caco-2 cell monolayers grown on permeable filter supports (Corning, catalog #3391) are used. […] The receiver and donor compartments contain 0.25% bovine serum albumine (BSA) in assay buffer. Passive diffusion and/or active transport of compounds across the monolayer is measured in both apical to basolateral (a-b) and basolateral to apical (b-a) direction. a-b permeability (PappAB) represents drug absorption from the intestine into the blood and b-a permeability (PappBA) drug secretion from the blood back into the intestine via both passive permeability as well as active transport mechanisms mediated by efflux and uptake transporters that are expressed on the Caco-2 cells. After a pre-incubation of 25-30 min at 37° C., at predefined time points (0, 30, 60 and 90 min), samples were taken from the receiver and donor compartment, respectively. Concentrations of test compounds in samples were measured by HPLC/MS/MS, samples from the donor compartment were diluted 1:50 (v:v) with assay buffer, samples from receiver compartment were measured without dilution.
Apparent permeabilities in a-b (PappAB) and b-a (PappBA) directions are calculated according to the formula:
[formula] • Vrec [mL]: buffer volume in receiver compartment • Cdon [μmol/mL]: concentration of test compound in donor compartment at t=0 • ΔCrec: difference between concentrations of test compound in receiver compartment at start and end of incubation time • Δt: Incubation time • Vrec·ΔCrec/Δt [μmol/min]: Amount of compound transferred to receiver compartment per time • A [cm^2]: filter surface
Caco-2 efflux ratios (ER) are calculated as the ratio of PappBA/PappAB.

Series [1] concerns NCI-H358 cells (NSCLC, G12C). The series is described as follows: NCI-H358 CTG proliferation assay (120 h), assay 2. It counts as cell-based. The settings on record: Homo sapiens, CellTiter-Glo, 384-well, 200 cells per well. On the procedure: NCI-1H358 cells (ATCC No. CRL-5807) are dispensed into white bottom opaque 96 well plates (Perkin Elmer cat no. 5680) at a density of 2000 cells per well in 100 μL RPM 1-1640 ATCC-Formulation (Gibco #A10491)+10% FCS (fetal calf serum) (assay 1) or into black 384-well plates, flat and clear bottom (Greiner, PNr. 781091) at a density of 200 cells per well in 60 μl RPMI-1640 ATCC-Formulation (Gibco #A10491)+10% FCS (fetal calf serum) (assay 2). […] Compounds (10 mM stock in DMSO) are added at logarithmic dose series using the HP Digital Dispenser D300 (Tecan) (assay 1) or the ECHO acoustic liquid handler system (Beckman Coulter) (assay 2), normalizing for added DMSO and including DMSO controls. For the TO time point measurement, untreated cells are analyzed at the time of compound addition. Plates are incubated for 120 h, and cell viability is measured using CellTiter-Glo luminescent cell viability reagent (Promega product code G7570). Viability (stated as percent of control) is defined as relative luminescence units RLU of each well divided by the RLU of cells in DMSO controls. IC50 values are determined from viability measurements by non-linear regression using a four-parameter model.
A general note: Cellular ATP, detected with luciferase, serves as a proxy for viable cell number.

Series [2] is described as follows: Solubility measurement (DMSO solution precipitation method). The class given is physicochemical. The settings on record: aqueous buffer, kinetic from dmso stock, ambient temperature. The procedure:
The DMSO solution is diluted with an aqueous medium (McIlvaine buffer with pH=4.5 or 6.8) to a final concentration of 250 μM. After 24 h of shaking at ambient temperature a potentially formed precipitate is removed by filtration. The concentration of the test compound in the filtrate is determined by LC-UV methods by calibrating the signal to the signal of a reference solution with complete dissolution of the test compound in acetonitrile/water (1:1) with known concentration.

In a further series the target is T2, CYP3A4 (Homo sapiens, UniProt P08684).
T2 construct: assayed in human liver microsomes (0.02 mg/mL) with midazolam (15 μM) as a substrate; from tissue; host or cells: human liver microsomes
The series is described as follows: Mechanism based inhibition of CYP3A4 assay (MBI 3A4). The class given is in vitro ADME. The settings on record: 25 uM, hydroxy-midazolam formation after 30 min preincubation relative to 0 min, human liver microsomes. The procedure:
After preincubation, the incubate is diluted 1:10 and the substrate midazolam is added for the main incubation (15 min). The main incubation is quenched with acetonitrile and the formation of hydroxy-midazolam is quantified via LC/MS-MS. The formation of hydroxy-midazolam from the 30 min preincubation relative to the formation from the 0 min preincubation is used as a readout. Values of less than 100% mean that the substrate midazolam is metabolized to a lower extent upon 30 min preincubation compared to 0 min preincubation. In general low effects upon 30 min preincubation are desired (corresponding to values close to 100%/not different to the values determined with water control).

A further series deals with T3, KRAS (G12C)::SOS1 (Homo sapiens, UniProt P01116, C118S/C51S/C80L/G12C).
T3 construct: KRAS (G12C) 1-169, N-terminal 6His-tag for purification, cleaved off; 6His-tag (N, cleaved yes)
Kind of series: KRAS::SOS1 AlphaScreen binding assay, KRAS G12C. On the procedure:
as §1, §2, §3, §4, §5, §6

[3] abbreviates: McIlvaine buffer pH 4.5, 24 h, read-out: solubility pH 4.5.
Setting [4] is: McIlvaine buffer pH 6.8, 24 h, read-out: solubility pH 6.8.

Read-outs that look alike come from different tables or passages of the source.

T1 sequence (P01116 1-169 isoform P01116-2 G12D): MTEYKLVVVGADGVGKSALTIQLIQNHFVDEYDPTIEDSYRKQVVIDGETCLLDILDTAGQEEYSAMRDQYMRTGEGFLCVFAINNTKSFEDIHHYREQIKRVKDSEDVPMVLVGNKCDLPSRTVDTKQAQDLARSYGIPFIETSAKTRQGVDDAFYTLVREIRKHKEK
KRAS G12D Ba/F3 cells, sequence (P01116 whole entry G12D, canonical isoform): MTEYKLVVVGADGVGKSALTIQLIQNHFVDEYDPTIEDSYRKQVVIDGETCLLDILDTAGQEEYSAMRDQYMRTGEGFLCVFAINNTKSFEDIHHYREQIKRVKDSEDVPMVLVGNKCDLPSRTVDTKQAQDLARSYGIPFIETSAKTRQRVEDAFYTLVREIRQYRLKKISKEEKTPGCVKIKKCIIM
T2 sequence (P08684 whole entry): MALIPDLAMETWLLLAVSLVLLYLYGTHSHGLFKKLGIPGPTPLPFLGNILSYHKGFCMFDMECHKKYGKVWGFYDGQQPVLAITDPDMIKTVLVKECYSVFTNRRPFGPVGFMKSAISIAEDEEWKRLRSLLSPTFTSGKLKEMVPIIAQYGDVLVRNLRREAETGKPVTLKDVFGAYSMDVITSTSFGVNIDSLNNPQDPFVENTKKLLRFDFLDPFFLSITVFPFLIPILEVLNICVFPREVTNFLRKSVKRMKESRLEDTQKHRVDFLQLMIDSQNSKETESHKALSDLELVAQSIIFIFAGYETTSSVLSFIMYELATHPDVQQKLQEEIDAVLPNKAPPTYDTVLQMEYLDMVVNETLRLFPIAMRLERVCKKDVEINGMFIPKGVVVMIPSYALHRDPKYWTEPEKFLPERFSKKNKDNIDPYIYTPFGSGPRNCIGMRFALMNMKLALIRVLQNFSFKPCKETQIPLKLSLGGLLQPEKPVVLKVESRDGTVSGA
KRAS G12C Ba/F3 cells, sequence (P01116 whole entry G12C): as the sequence (P01116 whole entry G12D, canonical isoform) above, with D12C counted along it
T3 sequence (P01116 1-169 isoform P01116-2 G12C/C51S/C80L/C118S): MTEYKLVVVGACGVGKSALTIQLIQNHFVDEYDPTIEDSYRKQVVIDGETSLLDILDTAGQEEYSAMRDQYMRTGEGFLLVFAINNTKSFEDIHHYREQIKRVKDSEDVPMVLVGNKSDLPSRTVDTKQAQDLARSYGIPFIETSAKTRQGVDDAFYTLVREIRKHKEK

For the compound `C[C@H](Oc1nccc(-c2noc3c2CCC[C@@]32CCCc3sc(N)c(C#N)c32)n1)[C@@H]1CCCN1C` [IIb-6], the IC50 on KRAS (G12D)::SOS1 was determined as 2 nM; in series [1], 402 nM; at KRAS (G12C)::SOS1, 4 nM. Besides, the GI50 was 13 nM on KRAS G12D Ba/F3 cells and 19 nM at KRAS G12C Ba/F3 cells. Further, the Papp A→B at 90 min, 10 μM in the series “Caco-2 assay” came out at 21 ×10⁻⁶ cm/s. Also, the efflux ratio at 90 min, 10 μM in the series “Caco-2 assay” is 1.3. The solubility at 24 h in series [2] (setting [3]) and in series [2] (setting [4]) was greater than 110 µg/mL in each case. On CYP3A4, the “MBI 3A4” value came to 52%.

As to `C[C@H](Oc1nccc(-c2onc3c2CCC[C@@]32CCCc3sc(N)c(C#N)c32)n1)[C@@H]1CCCN1C` [Ib-1], the half-inhibitory concentration (IC50) turned out to be 2 nM on KRAS (G12D)::SOS1, 1440 nM in series [1] and 3 nM on KRAS (G12C)::SOS1. In addition, the GI50 on KRAS G12D Ba/F3 cells came out at 24 nM; at KRAS G12C Ba/F3 cells, 51 nM. Besides, the Papp A→B at 90 min, 10 μM in the series “Caco-2 assay” is 26 ×10⁻⁶ cm/s. The efflux ratio at 90 min, 10 μM in the series “Caco-2 assay” was 1.3. Further, the solubility at 24 h in series [2] (setting [3]) and in series [2] (setting [4]) was greater than 110 µg/mL in each case. Also, on CYP3A4, the “MBI 3A4” value was 54%.
